Reference: ChEMBL document CHEMBL5058645, “Data for DCP probe JNJ-6204” (2022)

How the values were obtained:
[1] = biological target: Mu-type opioid receptor (Homo sapiens) (UniProt P35372); details: Compound concentration 10.0 uM, tested as the 2H-labelled form
[2] = biological target: Serine/threonine-protein kinase DCLK2 (Homo sapiens) (UniProt Q8N568); assay: DCAMKL2(h) Kinase panel; details: Compound concentration 1.0 uM, tested as the 2H-labelled form
[3] = biological target: Ribosomal protein S6 kinase alpha-5 (Homo sapiens) (UniProt O75582); assay: MSK1(h) Kinase panel; details: Compound concentration 1.0 uM, tested as the 2H-labelled form
[4] = biological target: Cyclin-dependent kinase-like 4 (Homo sapiens) (UniProt Q5MAI5); assay: CDKL4(h) Kinase panel; details: Compound concentration 1.0 uM, tested as the 2H-labelled form
[5] = biological target: Serine/threonine-protein kinase DCLK3 (Homo sapiens) (UniProt Q9C098); assay: DCAMKL3(h) Kinase panel; details: Compound concentration 1.0 uM, tested as the 2H-labelled form
[6] = biological target: Vascular endothelial growth factor receptor 2 (Homo sapiens) (UniProt P35968); assay: KDR(h) Kinase panel; details: Compound concentration 1.0 uM, tested as the 2H-labelled form
[7] = biological target: Serine/threonine-protein kinase ULK3 (Homo sapiens) (UniProt Q6PHR2); assay: ULK3(h) Kinase panel; details: Compound concentration 1.0 uM, tested as the 2H-labelled form
[8] = biological target: Serine/threonine-protein kinase Nek1 (Homo sapiens) (UniProt Q96PY6); assay: NEK1(h) Kinase panel; details: Compound concentration 1.0 uM, tested as the 2H-labelled form
Chain of Serine/threonine-protein kinase Nek1 (Homo sapiens) (Q96PY6 whole entry): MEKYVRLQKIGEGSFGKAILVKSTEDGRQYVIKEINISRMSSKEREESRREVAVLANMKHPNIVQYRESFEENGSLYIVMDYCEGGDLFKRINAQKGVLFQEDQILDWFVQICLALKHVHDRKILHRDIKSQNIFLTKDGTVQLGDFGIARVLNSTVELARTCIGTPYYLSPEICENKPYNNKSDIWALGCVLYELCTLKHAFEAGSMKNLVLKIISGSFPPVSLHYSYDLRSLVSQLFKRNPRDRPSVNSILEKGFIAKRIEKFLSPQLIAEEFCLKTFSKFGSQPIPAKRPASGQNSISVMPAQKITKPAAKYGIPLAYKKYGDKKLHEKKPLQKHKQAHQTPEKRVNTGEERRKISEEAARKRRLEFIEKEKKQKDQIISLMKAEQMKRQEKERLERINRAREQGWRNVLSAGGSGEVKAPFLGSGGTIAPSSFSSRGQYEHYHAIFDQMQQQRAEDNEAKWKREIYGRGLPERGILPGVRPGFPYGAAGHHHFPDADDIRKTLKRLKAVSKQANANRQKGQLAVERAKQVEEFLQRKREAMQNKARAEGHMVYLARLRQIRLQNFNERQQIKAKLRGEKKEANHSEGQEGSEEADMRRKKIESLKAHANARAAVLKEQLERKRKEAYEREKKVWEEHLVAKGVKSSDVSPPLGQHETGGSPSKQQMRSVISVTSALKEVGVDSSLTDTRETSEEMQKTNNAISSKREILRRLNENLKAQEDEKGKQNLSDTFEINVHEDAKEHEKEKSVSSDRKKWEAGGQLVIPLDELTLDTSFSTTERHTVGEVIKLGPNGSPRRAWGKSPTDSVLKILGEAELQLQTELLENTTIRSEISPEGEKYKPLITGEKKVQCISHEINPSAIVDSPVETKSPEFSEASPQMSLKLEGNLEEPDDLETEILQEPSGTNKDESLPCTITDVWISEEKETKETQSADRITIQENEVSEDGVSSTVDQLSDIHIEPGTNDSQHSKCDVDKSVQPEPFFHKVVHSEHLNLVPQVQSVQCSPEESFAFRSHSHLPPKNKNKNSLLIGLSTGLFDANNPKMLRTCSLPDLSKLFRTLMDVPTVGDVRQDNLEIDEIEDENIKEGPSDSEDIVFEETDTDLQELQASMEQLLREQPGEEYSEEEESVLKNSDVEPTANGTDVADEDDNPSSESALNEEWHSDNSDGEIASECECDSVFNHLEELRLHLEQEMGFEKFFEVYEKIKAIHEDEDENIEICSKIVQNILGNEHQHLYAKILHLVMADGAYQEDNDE

[9] = biological target: cAMP-dependent protein kinase catalytic subunit PRKX (Homo sapiens) (UniProt P51817); assay: PrKX(h) Kinase panel; details: Compound concentration 1.0 uM, tested as the 2H-labelled form
[10] = biological target: Dual specificity protein kinase CLK1 (Homo sapiens) (UniProt P49759); assay: CLK1(h) Kinase panel; details: Compound concentration 1.0 uM, tested as the 2H-labelled form
[11] = biological target: Tau-tubulin kinase 1 (Homo sapiens) (UniProt Q5TCY1); assay: TTBK1(h) Kinase panel; details: Compound concentration 1.0 uM, tested as the 2H-labelled form
[12] = biological target: Interleukin-1 receptor-associated kinase 4 (Homo sapiens) (UniProt Q9NWZ3); assay: IRAK4(h) Kinase panel; details: Compound concentration 1.0 uM, tested as the 2H-labelled form
[13] = biological target: Calcium/calmodulin-dependent protein kinase type II subunit gamma (Homo sapiens) (UniProt Q13555); assay: CaMKIIgamma(h) Kinase panel; details: Compound concentration 1.0 uM, tested as the 2H-labelled form
[14] = biological target: Protein kinase C zeta type (Homo sapiens) (UniProt Q05513); assay: PKCzeta(h) Kinase panel; details: Compound concentration 1.0 uM, tested as the 2H-labelled form
[15] = biological target: Serine/threonine-protein kinase PAK 3 (Homo sapiens) (UniProt O75914); assay: PAK3(h) Kinase panel; details: Compound concentration 1.0 uM, tested as the 2H-labelled form
[16] = biological target: Calcium/calmodulin-dependent protein kinase type IV (Homo sapiens) (UniProt Q16566); assay: CaMKIV(h) Kinase panel; details: Compound concentration 1.0 uM, tested as the 2H-labelled form
[17] = biological target: Cyclin-dependent kinase 1 (Homo sapiens) (UniProt P06493); assay: CDK1/cyclinB(h) Kinase panel; details: Compound concentration 1.0 uM, tested as the 2H-labelled form
[18] = biological target: Serine/threonine-protein kinase 4 (Homo sapiens) (UniProt Q13043); assay: MST1(h) Kinase panel; details: Compound concentration 1.0 uM, tested as the 2H-labelled form
[19] = biological target: Vascular endothelial growth factor receptor 3 (Homo sapiens) (UniProt P35916); assay: Flt4(h) Kinase panel; details: Compound concentration 1.0 uM, tested as the 2H-labelled form
Chain of Vascular endothelial growth factor receptor 3 (Homo sapiens) (P35916 whole entry): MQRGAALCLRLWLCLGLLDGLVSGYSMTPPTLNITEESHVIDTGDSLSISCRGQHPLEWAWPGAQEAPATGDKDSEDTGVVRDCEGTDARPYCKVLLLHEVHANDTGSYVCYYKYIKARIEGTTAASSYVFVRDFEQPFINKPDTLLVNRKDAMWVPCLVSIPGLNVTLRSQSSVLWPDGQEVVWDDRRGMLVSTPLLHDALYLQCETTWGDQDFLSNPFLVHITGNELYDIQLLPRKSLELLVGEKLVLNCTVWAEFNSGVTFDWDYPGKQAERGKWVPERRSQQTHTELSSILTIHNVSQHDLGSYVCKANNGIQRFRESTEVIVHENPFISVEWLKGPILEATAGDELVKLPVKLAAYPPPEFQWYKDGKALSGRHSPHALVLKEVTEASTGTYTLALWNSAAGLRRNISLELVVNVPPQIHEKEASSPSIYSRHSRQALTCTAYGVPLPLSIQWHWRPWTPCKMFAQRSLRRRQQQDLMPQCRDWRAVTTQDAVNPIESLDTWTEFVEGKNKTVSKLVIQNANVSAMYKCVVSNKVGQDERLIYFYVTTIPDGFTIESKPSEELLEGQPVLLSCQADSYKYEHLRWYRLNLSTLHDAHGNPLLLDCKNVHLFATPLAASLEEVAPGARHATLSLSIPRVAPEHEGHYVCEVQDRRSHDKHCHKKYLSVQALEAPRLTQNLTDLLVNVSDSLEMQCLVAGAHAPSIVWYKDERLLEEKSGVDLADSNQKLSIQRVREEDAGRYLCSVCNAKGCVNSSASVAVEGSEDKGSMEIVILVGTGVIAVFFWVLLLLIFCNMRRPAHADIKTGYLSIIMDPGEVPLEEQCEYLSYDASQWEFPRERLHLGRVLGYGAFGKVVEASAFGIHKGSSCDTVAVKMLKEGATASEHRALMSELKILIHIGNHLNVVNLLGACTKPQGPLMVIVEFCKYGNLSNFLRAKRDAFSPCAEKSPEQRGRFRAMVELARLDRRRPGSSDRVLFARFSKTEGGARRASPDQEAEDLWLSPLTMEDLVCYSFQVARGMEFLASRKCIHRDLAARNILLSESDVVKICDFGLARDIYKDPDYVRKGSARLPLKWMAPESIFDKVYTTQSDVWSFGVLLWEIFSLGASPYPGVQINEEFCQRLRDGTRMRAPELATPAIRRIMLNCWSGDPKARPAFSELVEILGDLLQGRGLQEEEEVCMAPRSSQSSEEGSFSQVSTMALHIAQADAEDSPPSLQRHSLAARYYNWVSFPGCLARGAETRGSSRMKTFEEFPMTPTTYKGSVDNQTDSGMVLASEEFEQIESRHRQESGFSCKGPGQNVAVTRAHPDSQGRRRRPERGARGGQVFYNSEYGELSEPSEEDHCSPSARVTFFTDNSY

[20] = biological target: Tyrosine-protein kinase CSK (Homo sapiens) (UniProt P41240); assay: CSK(h) Kinase panel; details: Compound concentration 1.0 uM, tested as the 2H-labelled form
[21] = biological target: Transient receptor potential cation channel subfamily M member 7 (Homo sapiens) (UniProt Q96QT4); assay: ChaK1(h) Kinase panel; details: Compound concentration 1.0 uM, tested as the 2H-labelled form
[22] = biological target: Serine/threonine-protein kinase 35 (Homo sapiens) (UniProt Q8TDR2); assay: CLIK1(h) Kinase panel; details: Compound concentration 1.0 uM, tested as the 2H-labelled form
[23] = biological target: Focal adhesion kinase 1 (Homo sapiens) (UniProt Q05397); assay: FAK(h) Kinase panel; details: Compound concentration 1.0 uM, tested as the 2H-labelled form
[24] = biological target: Serine/threonine-protein kinase SIK3 (Homo sapiens) (UniProt Q9Y2K2); assay: SIK3(h) Kinase panel; details: Compound concentration 1.0 uM, tested as the 2H-labelled form
[25] = biological target: Serine/threonine-protein kinase 16 (Homo sapiens) (UniProt O75716); assay: STK16(h) Kinase panel; details: Compound concentration 1.0 uM, tested as the 2H-labelled form
[26] = biological target: Insulin receptor-related protein (Homo sapiens) (UniProt P14616); assay: IRR(h) Kinase panel; details: Compound concentration 1.0 uM, tested as the 2H-labelled form
[27] = biological target: Sigma intracellular receptor 2 (Homo sapiens) (UniProt Q5BJF2); details: Compound concentration 10.0 uM, tested as the 2H-labelled form
Chain of Sigma intracellular receptor 2 (Homo sapiens) (Q5BJF2 whole entry): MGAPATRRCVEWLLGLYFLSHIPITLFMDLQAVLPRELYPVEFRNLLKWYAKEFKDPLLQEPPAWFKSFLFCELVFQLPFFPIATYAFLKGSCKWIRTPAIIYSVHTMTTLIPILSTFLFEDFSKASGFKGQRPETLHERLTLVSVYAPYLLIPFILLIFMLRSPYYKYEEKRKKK

[28] = biological target: Calcium/calmodulin-dependent protein kinase type II subunit delta (Homo sapiens) (UniProt Q13557); assay: CaMKIIdelta(h) Kinase panel; details: Compound concentration 1.0 uM, tested as the 2H-labelled form
[29] = biological target: Phosphatidylinositol 4-phosphate 5-kinase type-1 gamma (Homo sapiens) (UniProt O60331); assay: PIP5K1g(h) Kinase panel; details: Compound concentration 1.0 uM, tested as the 2H-labelled form
[30] = biological target: Serine/threonine-protein kinase VRK2 (Homo sapiens) (UniProt Q86Y07); assay: VRK2(h) Kinase panel; details: Compound concentration 1.0 uM, tested as the 2H-labelled form
[31] = biological target: Ephrin type-A receptor 2 (Homo sapiens) (UniProt P29317); assay: EphA2(h) Kinase panel; details: Compound concentration 1.0 uM, tested as the 2H-labelled form
[32] = biological target: Serine/threonine-protein kinase PAK 2 (Homo sapiens) (UniProt Q13177); assay: PAK2(h) Kinase panel; details: Compound concentration 1.0 uM, tested as the 2H-labelled form
[33] = biological target: Sodium-dependent dopamine transporter (Homo sapiens, UniProt Q01959); details: Compound concentration 10.0 uM, tested as the 2H-labelled form
[34] = biological target: Cyclin-dependent kinase 5 (Homo sapiens) (UniProt Q00535); assay: CDK5/p25(h) Kinase panel; details: Compound concentration 1.0 uM, tested as the 2H-labelled form
Chain of Cyclin-dependent kinase 5 (Homo sapiens) (Q00535 whole entry, looked up): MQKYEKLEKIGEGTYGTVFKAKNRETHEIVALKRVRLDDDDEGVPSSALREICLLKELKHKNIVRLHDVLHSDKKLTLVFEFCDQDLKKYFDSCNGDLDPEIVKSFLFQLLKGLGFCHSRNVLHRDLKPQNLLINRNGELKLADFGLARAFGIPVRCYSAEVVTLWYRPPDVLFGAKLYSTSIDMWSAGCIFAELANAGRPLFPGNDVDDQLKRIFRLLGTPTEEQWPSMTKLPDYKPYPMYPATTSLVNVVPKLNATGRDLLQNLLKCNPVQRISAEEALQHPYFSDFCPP

[35] = biological target: Ribosomal protein S6 kinase alpha-4 (Homo sapiens) (UniProt O75676); assay: MSK2(h) Kinase panel; details: Compound concentration 1.0 uM, tested as the 2H-labelled form
[36] = biological target: Activin receptor type-1B (Homo sapiens) (UniProt P36896); assay: ALK4(h) Kinase panel; details: Compound concentration 1.0 uM, tested as the 2H-labelled form
[37] = biological target: Bone morphogenetic protein receptor type-2 (Homo sapiens) (UniProt Q13873); assay: BMPR2(h) Kinase panel; details: Compound concentration 1.0 uM, tested as the 2H-labelled form
[38] = biological target: Serine/threonine-protein kinase N1 (Homo sapiens) (UniProt Q16512); assay: PRK1(h) Kinase panel; details: Compound concentration 1.0 uM, tested as the 2H-labelled form
[39] = biological target: Cytoplasmic tyrosine-protein kinase BMX (Homo sapiens) (UniProt P51813); assay: Bmx(h) Kinase panel; details: Compound concentration 1.0 uM, tested as the 2H-labelled form
[40] = biological target: NUAK family SNF1-like kinase 2 (Homo sapiens) (UniProt Q9H093); assay: NUAK2(h) Kinase panel; details: Compound concentration 1.0 uM, tested as the 2H-labelled form
[41] = biological target: Protein kinase C gamma type (Homo sapiens) (UniProt P05129); assay: PKCgamma(h) Kinase panel; details: Compound concentration 1.0 uM, tested as the 2H-labelled form
[42] = biological target: Misshapen-like kinase 1 (Homo sapiens) (UniProt Q8N4C8); assay: MINK(h) Kinase panel; details: Compound concentration 1.0 uM, tested as the 2H-labelled form
[43] = biological target: Serine/threonine-protein kinase PLK2 (Homo sapiens) (UniProt Q9NYY3); assay: Snk(h) Kinase panel; details: Compound concentration 1.0 uM, tested as the 2H-labelled form
[44] = biological target: Kappa-type opioid receptor (Homo sapiens) (UniProt P41145); details: Compound concentration 10.0 uM, tested as the 2H-labelled form
Chain of Kappa-type opioid receptor (Homo sapiens) (P41145 whole entry): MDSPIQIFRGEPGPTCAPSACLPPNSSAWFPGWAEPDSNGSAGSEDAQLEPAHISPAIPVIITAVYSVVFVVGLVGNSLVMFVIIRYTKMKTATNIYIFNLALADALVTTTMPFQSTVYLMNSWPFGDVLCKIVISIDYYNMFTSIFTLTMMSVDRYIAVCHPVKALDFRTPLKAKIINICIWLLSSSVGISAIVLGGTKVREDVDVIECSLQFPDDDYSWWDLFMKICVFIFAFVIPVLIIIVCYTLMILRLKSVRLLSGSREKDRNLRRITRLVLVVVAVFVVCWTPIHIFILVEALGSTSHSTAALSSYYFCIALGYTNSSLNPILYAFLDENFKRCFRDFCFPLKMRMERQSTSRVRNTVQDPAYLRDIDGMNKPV

[45] = biological target: Dual specificity tyrosine-phosphorylation-regulated kinase 1B (Homo sapiens) (UniProt Q9Y463); assay: DYRK1B(h) Kinase panel; details: Compound concentration 1.0 uM, tested as the 2H-labelled form
[46] = biological target: Platelet-derived growth factor receptor beta (Homo sapiens) (UniProt P09619); assay: PDGFRbeta(h) Kinase panel; details: Compound concentration 1.0 uM, tested as the 2H-labelled form
[47] = biological target: D(2) dopamine receptor (Homo sapiens) (UniProt P14416); details: Compound concentration 10.0 uM, tested as the 2H-labelled form
[48] = biological target: Serine/threonine-protein kinase ULK1 (Homo sapiens) (UniProt O75385); assay: ULK1(h) Kinase panel; details: Compound concentration 1.0 uM, tested as the 2H-labelled form
[49] = biological target: Eukaryotic elongation factor 2 kinase (Homo sapiens) (UniProt O00418); assay: eEF-2K(h) Kinase panel; details: Compound concentration 1.0 uM, tested as the 2H-labelled form
[50] = biological target: Aurora kinase B (Homo sapiens) (UniProt Q96GD4); assay: Aurora-B(h) Kinase panel; details: Compound concentration 1.0 uM, tested as the 2H-labelled form
[51] = biological target: Serine/threonine-protein kinase TAO3 (Homo sapiens) (UniProt Q9H2K8); assay: TAO3(h) Kinase panel; details: Compound concentration 1.0 uM, tested as the 2H-labelled form
[52] = biological target: Serine/threonine-protein kinase tousled-like 2 (Homo sapiens) (UniProt Q86UE8); assay: TLK2(h) Kinase panel; details: Compound concentration 1.0 uM, tested as the 2H-labelled form
Chain of Serine/threonine-protein kinase tousled-like 2 (Homo sapiens) (Q86UE8 whole entry, looked up): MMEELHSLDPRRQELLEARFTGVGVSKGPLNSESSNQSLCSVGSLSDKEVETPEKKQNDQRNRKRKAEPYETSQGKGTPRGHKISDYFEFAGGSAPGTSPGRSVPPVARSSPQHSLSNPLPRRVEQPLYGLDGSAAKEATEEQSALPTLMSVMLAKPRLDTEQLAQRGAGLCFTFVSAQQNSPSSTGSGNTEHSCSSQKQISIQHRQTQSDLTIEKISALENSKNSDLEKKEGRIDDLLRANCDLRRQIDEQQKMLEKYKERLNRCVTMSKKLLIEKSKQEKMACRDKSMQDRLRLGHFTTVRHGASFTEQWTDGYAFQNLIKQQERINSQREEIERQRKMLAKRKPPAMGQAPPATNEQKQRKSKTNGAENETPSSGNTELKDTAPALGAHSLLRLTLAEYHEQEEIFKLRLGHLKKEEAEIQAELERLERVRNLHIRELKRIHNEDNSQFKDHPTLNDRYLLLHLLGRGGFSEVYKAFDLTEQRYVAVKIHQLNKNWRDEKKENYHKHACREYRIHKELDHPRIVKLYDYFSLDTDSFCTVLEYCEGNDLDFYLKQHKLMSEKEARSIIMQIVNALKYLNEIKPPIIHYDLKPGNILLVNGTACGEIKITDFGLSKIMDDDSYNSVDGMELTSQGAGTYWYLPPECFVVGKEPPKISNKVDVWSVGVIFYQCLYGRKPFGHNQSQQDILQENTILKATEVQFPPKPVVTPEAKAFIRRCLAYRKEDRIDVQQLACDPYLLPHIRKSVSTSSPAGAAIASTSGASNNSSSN

inhibition [1]: -6.9%
inhibition [2]: 37%
inhibition [3]: 8%
inhibition [4]: 9%
inhibition [5]: -6%
inhibition [6]: 2%
inhibition [7]: 12%
inhibition [8]: 5%
inhibition [9]: 0%
inhibition [10]: 6%
inhibition [11]: 19%
inhibition [12]: -7%
inhibition [13]: -2%
inhibition [14]: 5%
inhibition [15]: 9%
inhibition [16]: -5%
inhibition [17]: -8%
inhibition [18]: -4%
inhibition [19]: 7%
inhibition [20]: -3%
inhibition [21]: 10%
inhibition [22]: 13%
inhibition [23]: 1%
inhibition [24]: -1%
inhibition [25]: 8%
inhibition [26]: -4%
inhibition [27]: -3%
inhibition [28]: -6%
inhibition [29]: -1%
inhibition [30]: 8%
inhibition [31]: 17%
inhibition [32]: -10%
inhibition [33]: 43.8%
inhibition [34]: 20%
inhibition [35]: -1%
inhibition [36]: 25%
inhibition [37]: -7%
inhibition [38]: 9%
inhibition [39]: 19%
inhibition [40]: -1%
inhibition [41]: 3%
inhibition [42]: 2%
inhibition [43]: -4%
inhibition [44]: 12%
inhibition [45]: -10%
inhibition [46]: -9%
inhibition [47]: 4.12%
inhibition [48]: 9%
inhibition [49]: 7%
inhibition [50]: -10%
inhibition [51]: 5%
inhibition [52]: 12%
SMILES: CC1(C)Cn2nc(-c3ccc(F)cn3)c(-c3ccnc4[nH]ncc34)c2CO1
